Source: PubChem BioAssay (NCI)
“And” between values parts separate entries of the source, which are not always exact repeats. Equal entries are not always repeated.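 96-well plates; 48 h exposure; 5 concentrations. Endpoints by linear interpolation between flanking doses. Not reached: highest tested concentration assigned. GI50: concentration for 50% inhibition of growth. TGI: concentration producing complete growth inhibition.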

Legend:
Assay in all cases: NCI tumour cell line growth inhibition, 48 h
[1] = system: BT-549 breast
[2] = system: COLO 205 colon
[3] = system: HCT-116 colon
[4] = system: OVCAR-3 ovarian
[5] = system: OVCAR-8 ovarian
[6] = system: SK-MEL-2 melanoma
[7] = system: SNB-19 CNS
[8] = system: SW-620 colon
[9] = system: U251 CNS
[10] = system: UACC-62 melanoma

SMILES | TGI [1] | TGI [2] | TGI [3] | TGI [4] | TGI [5] | TGI [6] | TGI [7] | TGI [8] [µM] | TGI [9] | TGI [10] | GI50 [1] | GI50 [2] | GI50 [3] | GI50 [4] | GI50 [5] | GI50 [6] [µM] | GI50 [7] | GI50 [8] | GI50 [9] | GI50 [10] [µM]
C=C(c1ccccc1)[C@@]1(O)CC[C@@H]1N(CC#N)Cc1ccccc1 | 37.1 µM | 30.4 µM | 30.3 µM | 17.1 µM | 52.3 µM | 53.1 µM | > 63.8 µM | 34.8 | > 100 µM | 32.1 µM |  |  |  |  |  |  |  |  |  | 
COC(=O)[C@@H](C)C[C@H](Cc1ccccc1)NC(=O)c1csc([C@@H](C[C@H](C(C)C)N(C)C(=O)[C@@H](NC(=O)[C@H]2CCCCN2C)C2CC2)OC(C)=O)n1 | 0.0298 µM and 0.0146 µM | 0.00336 µM and < 0.00165 µM | 0.011 µM | 0.00379 µM and < 0.00165 µM | > 16.5 µM |  | > 16.5 µM | > 16.5 | > 16.5 µM | > 16.5 µM | 0.000506 µM and 0.00165 µM | 0.000369 µM and < 0.00165 µM | 0.00043 µM and 0.00165 µM | 4.97e-05 µM and < 0.00165 µM | 0.000629 µM and 0.00165 µM | 0.000344 | 0.000552 µM and 0.00165 µM | 0.000292 µM and 0.00165 µM | 0.000457 µM and 0.00165 µM | 
COc1cccc(/C=N/C(/N=C/c2cccc(OC)c2O)c2cccc(OC)c2O)c1O | 71.9 µM | > 100 µM | > 100 µM | 62.4 µM | 47.9 µM | 43.2 µM | > 100 µM | > 100 | 80.1 µM | 59.8 µM |  |  |  |  |  |  |  |  |  | 
NCCCNCCCCNC(=O)C(O)NC(=O)CCCCCCN=C(N)N (stereo unspecified) | 750 µM and 4950 µM | 750 µM and > 5000 µM | 750 µM and > 4790 µM | 750 µM and > 5000 µM | 750 µM and > 5000 µM | 750 µM and 3420 µM | 750 µM and > 4430 µM | > 5000 | 636 µM and > 4540 µM | 750 µM and > 5000 µM | 1540 µM | 1580 µM | 1830 µM | 1750 µM | 2440 µM | 2040 | 2080 µM | 1900 µM | 2080 µM | > 2860
Cc1cc(C)c(-n2c(-c3ccc(Br)cc3)cs/c2=N\N=C2C=C(C(C)(C)C)C(=O)C(C(C)(C)C)=C2)c(C)c1 | > 100 µM | > 100 µM | > 100 µM | > 100 µM | > 100 µM | > 100 µM | > 100 µM | > 100 | > 100 µM | > 100 µM |  |  |  |  |  |  |  |  |  | 
Cc1cnc(C(=O)NNc2nc3sc4c(c3c(=O)n2C)C(C)CCC4)cn1 (stereo unspecified) | 14 µM | 1.33 µM | 7.06 µM | 1.8 µM | 11.9 µM | 8.88 µM | 5.45 µM | 6.66 | 2.32 µM | 2.24 µM | 1.03 µM | 0.296 µM | 0.26 µM | 0.259 µM | 0.366 µM | 1.02 | 0.425 µM | 0.408 µM | 0.228 µM | 0.346
CC(C)CC(NC(=O)OC(C)(C)C)C(=O)Nc1ccc(Nc2nc(F)nc(-c3c4ccccc4cn3C)n2)cc1 (stereo unspecified) | > 100 µM | 49.3 µM | > 100 µM | 63 µM | > 100 µM | > 100 µM | > 100 µM | > 54.4 | > 46.4 µM | > 100 µM |  |  |  |  |  |  |  |  |  | 
CC12CCC(Br)C(C)(C)C1CC=C1C(=O)OCC1O2 (stereo unspecified) | 41 µM | 34.7 µM | > 44.5 µM | 31.3 µM | 34.9 µM | 28.6 µM | > 50.4 µM | 32.8 | 23.2 µM | 25.7 µM |  |  |  |  |  |  |  |  |  | 
CCCCCCCc1cc2c3c(nc4ccccc42)C(=O)c2cccnc2-c3n1 | 33.2 µM | 9.59 µM | 3.35 µM | 8.97 µM | 16.6 µM | 27.2 µM | 7.31 µM | 6.34 | 8.05 µM | 10.1 µM | 16.2 µM | 5.05 µM | 0.375 µM | 2.3 µM | 5.41 µM | 12.3 | 2.17 µM | 1.5 µM | 2.96 µM | 5.41
COc1cc2c(cc1OC)C13CCN4CC5CCOC6CC(=O)N2C1C6C5CC43 (stereo unspecified) | > 100 µM | > 100 µM | > 100 µM | > 100 µM | > 100 µM | > 100 µM | > 100 µM | > 100 | > 100 µM | > 100 µM |  |  |  |  |  |  |  |  |  | 
COc1ccc(-c2ccc(-c3ccc(C(=N)N)o3)o2)cc1 | 16.9 µM | 2.94 µM | 3.01 µM | 2.74 µM | 11.4 µM | 21.7 µM | 11.3 µM | 2.43 | 4.12 µM | 3.05 µM | 4.55 µM | 1.25 µM | 1.07 µM | 0.924 µM | 3.19 µM | 5.71 | 1.99 µM | 0.532 µM | 1.74 µM | 1.29
O=C1C(=O)c2cccnc2-c2ncccc21 | 1.19 µM | 2.51 µM | 0.159 µM | 0.503 µM | 0.727 µM | 2.35 µM | 1.1 µM | 1.12 | 0.674 µM | 0.514 µM | 0.242 µM | 1.03 µM | 0.0401 µM | 0.193 µM | 0.166 µM | 0.71 | 0.236 µM | 0.072 µM | 0.131 µM | 0.201
CCN(CC)c1ccc(C(=O)c2ccc(N(CC)CC)cc2)cc1 | 16.5 µM | 3.44 µM | 13.6 µM | 0.706 µM | > 38.9 µM | 14.9 µM | > 100 µM | 17 | 23.2 µM | > 100 µM | 0.629 µM | 0.515 µM | 0.453 µM | 0.264 µM | 0.72 µM | 0.493 | 2.47 µM | 0.326 µM | 0.504 µM | 0.429
O=C1c2ccccc2S(=O)(=O)c2cc(-c3nn[nH]n3)ccc21 | > 100 µM | > 100 µM | > 100 µM | > 100 µM | > 100 µM | > 100 µM | > 100 µM | > 100 | > 100 µM | > 100 µM |  |  |  |  |  |  |  |  |  | 
O=c1c(O)c(-c2cc(O)c(O)c(O)c2)oc2cc(O)cc(O)c12 | > 100 µM | > 100 µM | 34.1 µM | 89.7 µM | 33.2 µM | > 100 µM |  | 36 | 32.8 µM | > 100 µM |  |  |  |  |  |  |  |  |  | 
CC(=O)OCc1cc2ccccc2nc1C(Br)(Br)Br | 27.2 µM | 55.2 µM | 31.6 µM | 30.2 µM |  | 41.9 µM | 46.2 µM | 44.8 | 28.1 µM | 32.2 µM |  |  |  |  |  |  |  |  |  | 
